The test system of this assay is BDF1 mice, s.c. Lewis lung carcinoma, T/C %. Kind of assay: NCI In Vivo Anticancer Drug Screen. Data for tumor model Lewis Lung Carcinoma (subcutaneous) in B6D2F1 (BDF1) mice. In outline: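 Tumor-bearing mice were treated with test compound, and either survival or tumor size was recorded. Values are the treated-group measurement divided by that of the vehicle-treated control group.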

Setting [1] is: endpoint: median survival time, dose: 0.12 mg/kg/injection, schedule: Q01DX009 (ip), vehicle: Klucel (hydroxypropylcellulose) (HPC), higher = longer survival.
[2] abbreviates: endpoint: median survival time, dose: 0.25 mg/kg/injection, schedule: Q01DX009 (ip), vehicle: Klucel (hydroxypropylcellulose) (HPC), higher = longer survival.
Setting [3] is: endpoint: median survival time, dose: 1.0 mg/kg/injection, schedule: Q01DX009 (ip), vehicle: Klucel (hydroxypropylcellulose) (HPC), higher = longer survival.
[4] abbreviates: endpoint: median survival time, dose: 25.0 mg/kg/injection, schedule: Q01DX009 (ip), vehicle: Klucel (hydroxypropylcellulose) (HPC), higher = longer survival.
Setting [5] is: endpoint: mean tumor weight, dose: 4.0 mg/kg/injection, schedule: Q01DX011 (ip), vehicle: saline, higher = larger tumour.

Values joined by “and” are separate entries in the source; they are usually repeats but may differ in a detail not shown here. Equal entries are not always repeated. Inconclusive results are not listed.

`CC[C@@]1(O)C(=O)OCc2c1cc1n(c2=O)Cc2cc3c(OC)cccc3nc2-1`: the T/C by setting is: under setting [1], 119 % of control; under setting [2], 197 % of control; (endpoint: median survival time, dose: 0.51 mg/kg/injection, schedule: Q01DX009 (ip), vehicle: Klucel (hydroxypropylcellulose) (HPC), higher = longer survival) 198 % of control; under setting [3], 198 % of control.

With `CC(=O)NNC(=O)c1ccccn1`, the T/C by setting is: under setting [4], 112 % of control; (endpoint: median survival time, dose: 100.0 mg/kg/injection, schedule: Q01DX009 (ip), vehicle: Klucel (hydroxypropylcellulose) (HPC), higher = longer survival) 102 % of control; (endpoint: median survival time, dose: 200.0 mg/kg/injection, schedule: Q01DX009 (ip), vehicle: Klucel (hydroxypropylcellulose) (HPC), higher = longer survival) 115 % of control.

As for `CCC1/C=C/C=C/CC(C)C(O)C(C)(O)C(=O)C(C)C(O)C(C)C(=O)C(C)C(O)C(C)/C=C/C(=O)OC2C(C)C(CC1)OC1(OC(CC(C)O)C(C)CC1=O)C2C` (configuration not stated) (tested in a mixture with another compound), the T/C is 106 % of control (endpoint: mean tumor weight, dose: 2.0 mg/kg/injection, schedule: Q01DX011 (ip), vehicle: saline, higher = larger tumour); 94 % of control under setting [5]; 82 % of control (endpoint: mean tumor weight, dose: 8.0 mg/kg/injection, schedule: Q01DX011 (ip), vehicle: saline, higher = larger tumour).

Consider `CC1OC(Oc2c(-c3cc(O)c(O)c(O)c3)oc3cc(O)cc(O)c3c2=O)C(O)C(O)C1O` (configuration not stated), for which the T/C is, setting by setting: (endpoint: mean tumor weight, dose: 100.0 mg/kg/injection, schedule: Q01DX011 (ip), vehicle: carboxymethylcellulose (CMC), higher = larger tumour) 59 % of control; (endpoint: mean tumor weight, dose: 200.0 mg/kg/injection, schedule: Q01DX011 (ip), vehicle: carboxymethylcellulose (CMC), higher = larger tumour) 49 % of control; (endpoint: mean tumor weight, dose: 400.0 mg/kg/injection, schedule: Q01DX011 (ip), vehicle: carboxymethylcellulose (CMC), higher = larger tumour) 50 % of control.

With `C=C1C(=O)OC2CC(C)C3C4OC4C(O)C3(C)C(O)C12` (configuration not stated), the T/C reads like this: (endpoint: median survival time, dose: 9.38 mg/kg/injection, schedule: Q01DX009 (ip), vehicle: saline with Tween-80, higher = longer survival) 99 % of control; (endpoint: median survival time, dose: 18.75 mg/kg/injection, schedule: Q01DX009 (ip), vehicle: saline with Tween-80, higher = longer survival) 96 % of control; (endpoint: median survival time, dose: 37.5 mg/kg/injection, schedule: Q01DX009 (ip), vehicle: saline with Tween-80, higher = longer survival) 101 % of control.

For the compound `CSCS(=O)C[C@H](CO)NC(=O)/C=C/c1c(C)[nH]c(=O)[nH]c1=O` (some centres not stated), the T/C reads like this: (endpoint: median survival time, dose: 0.08 mg/kg/injection, schedule: Q01DX009 (ip), vehicle: water, higher = longer survival) 94 % of control; (endpoint: median survival time, dose: 0.15 mg/kg/injection, schedule: Q01DX009 (ip), vehicle: water, higher = longer survival) 109 % of control; (endpoint: median survival time, dose: 0.3 mg/kg/injection, schedule: Q01DX009 (ip), vehicle: water, higher = longer survival) 97 % of control.

With `COc1ccc(-c2cc(=O)c3c(OC)c(OC)c(OC)c(OC)c3o2)cc1OC`, the T/C by setting is: (endpoint: mean tumor weight, dose: 50.0 mg/kg/injection, schedule: Q01DX011 (ip), vehicle: saline, higher = larger tumour) 55 % of control and 77 % of control; (endpoint: mean tumor weight, dose: 200.0 mg/kg/injection, schedule: Q01DX011 (ip), vehicle: saline, higher = larger tumour) 62 % of control and 78 % of control.

For `NCCCOc1ccc([N+](=O)[O-])cc1Cl`, the T/C is 87 % of control (endpoint: median survival time, dose: 12.5 mg/kg/injection, schedule: Q01DX009 (ip), vehicle: saline, higher = longer survival); 100 % of control and 120 % of control and 121 % of control (endpoint: median survival time, dose: 50.0 mg/kg/injection, schedule: Q01DX009 (ip), vehicle: saline, higher = longer survival); 87 % of control and 101 % of control and 112 % of control (endpoint: median survival time, dose: 100.0 mg/kg/injection, schedule: Q01DX009 (ip), vehicle: saline, higher = longer survival).

Turning to `CCC[CH2][Sn]1([CH2]CCC)[N](S(=O)(=O)c2ccc(C)cc2)c2ccccc2[N]1S(=O)(=O)c1ccc(C)cc1`, the T/C reads like this: (endpoint: median survival time, dose: 1.5 mg/kg/injection, schedule: Q01DX009 (ip), vehicle: Klucel (hydroxypropylcellulose) (HPC), higher = longer survival) 111 % of control; (endpoint: median survival time, dose: 3.0 mg/kg/injection, schedule: Q01DX009 (ip), vehicle: Klucel (hydroxypropylcellulose) (HPC), higher = longer survival) 90 % of control; (endpoint: median survival time, dose: 6.0 mg/kg/injection, schedule: Q01DX009 (ip), vehicle: Klucel (hydroxypropylcellulose) (HPC), higher = longer survival) 101 % of control.

For `CCOC(=O)NP(=O)(N1CC1)N1CC1`, the T/C is 61 % of control and 75 % of control (endpoint: mean tumor weight, dose: 2.5 mg/kg/injection, schedule: Q01DX011 (ip), vehicle: saline, higher = larger tumour); 35 % of control and 56 % of control (endpoint: mean tumor weight, dose: 5.0 mg/kg/injection, schedule: Q01DX011 (ip), vehicle: saline, higher = larger tumour).

As for `CC(=O)OC1CCC(NC(=O)N(CCF)N=O)CC1` (configuration not stated), the T/C reads like this: (endpoint: median survival time, dose: 24.0 mg/kg/injection, schedule: Q01DX001 (ip), vehicle: saline with Tween-80, higher = longer survival) 100 % of control; (endpoint: median survival time, dose: 36.0 mg/kg/injection, schedule: Q01DX001 (ip), vehicle: saline with Tween-80, higher = longer survival) 102 % of control.

Consider `COc1ccc(-c2cc(=O)c3ccccc3o2)c(OC)c1OC`, for which the T/C (endpoint: mean tumor weight, dose: 50.0 mg/kg/injection, schedule: Q01DX010 (ip), vehicle: saline, higher = larger tumour) is 95 % of control; the T/C (endpoint: mean tumor weight, dose: 100.0 mg/kg/injection, schedule: Q01DX010 (ip), vehicle: saline, higher = larger tumour) is 101 % of control; the T/C (endpoint: mean tumor weight, dose: 200.0 mg/kg/injection, schedule: Q01DX010 (ip), vehicle: saline, higher = larger tumour) was 83 % of control; the T/C (endpoint: mean tumor weight, dose: 400.0 mg/kg/injection, schedule: Q01DX010 (ip), vehicle: saline, higher = larger tumour) was 99 % of control.

For the compound `COc1cc(C=Nc2ccc(-c3nc(Cc4ccccc4)sc3C)cc2)ccc1N(CCCl)CCCl`, the T/C is, setting by setting: (endpoint: median survival time, dose: 12.5 mg/kg/injection, schedule: Q01DX009 (ip), vehicle: Klucel (hydroxypropylcellulose) (HPC), higher = longer survival) 90 % of control; under setting [4], 110 % of control.

In the case of `CC(=O)OC1C=CC(=O)OC1C1OC1C` (configuration not stated), the T/C reads like this: under setting [5], 105 % of control; (endpoint: mean tumor weight, dose: 6.0 mg/kg/injection, schedule: Q01DX011 (ip), vehicle: saline, higher = larger tumour) 81 % of control; (endpoint: mean tumor weight, dose: 9.0 mg/kg/injection, schedule: Q01DX011 (ip), vehicle: saline, higher = larger tumour) 91 % of control; (endpoint: mean tumor weight, dose: 19.0 mg/kg/injection, schedule: Q01DX011 (ip), vehicle: saline, higher = larger tumour) 62 % of control.

As for `COC(COC(N)=O)C1=C(N2CC2)C(=O)C(C)=C(N2CC2)C1=O` (configuration not stated), the T/C was 96 % of control (endpoint: median survival time, dose: 0.03 mg/kg/injection, schedule: Q01DX009 (ip), vehicle: Klucel (hydroxypropylcellulose) (HPC), higher = longer survival); 103 % of control under setting [1]; 107 % of control under setting [2]; 119 % of control (endpoint: median survival time, dose: 0.5 mg/kg/injection, schedule: Q01DX009 (ip), vehicle: Klucel (hydroxypropylcellulose) (HPC), higher = longer survival); 93 % of control under setting [3].

Consider `COc1ccc([C@@H]2c3cc4c(cc3C[C@H]3COC(=O)[C@@H]32)OCO4)cc1OC`, for which the T/C was 98 % of control (endpoint: median survival time, dose: 11.0 mg/kg/injection, schedule: Q01DX009 (ip), vehicle: saline with Tween-80, higher = longer survival); 100 % of control (endpoint: median survival time, dose: 22.0 mg/kg/injection, schedule: Q01DX009 (ip), vehicle: saline with Tween-80, higher = longer survival); 97 % of control (endpoint: median survival time, dose: 33.0 mg/kg/injection, schedule: Q01DX009 (ip), vehicle: saline with Tween-80, higher = longer survival).

Take `CC(=O)OCC(=O)[C@@]1(O)CC[C@H]2[C@@H]3C[C@H](C)C4=CC(=O)C=C[C@]4(C)[C@@]3(Br)[C@@H](O)C[C@@]21C`: the T/C (endpoint: mean tumor weight, dose: 0.56 mg/kg/injection, schedule: Q01DX011 (sc), vehicle: steriod suspending solution, higher = larger tumour) was 89 % of control; the T/C (endpoint: mean tumor weight, dose: 1.12 mg/kg/injection, schedule: Q01DX011 (sc), vehicle: steriod suspending solution, higher = larger tumour) was 69 % of control; the T/C (endpoint: mean tumor weight, dose: 4.5 mg/kg/injection, schedule: Q01DX011 (sc), vehicle: steriod suspending solution, higher = larger tumour) was 57 % of control and 72 % of control; the T/C (endpoint: mean tumor weight, dose: 5.3 mg/kg/injection, schedule: Q01DX011 (sc), vehicle: steriod suspending solution, higher = larger tumour) was 50 % of control; the T/C (endpoint: mean tumor weight, dose: 7.9 mg/kg/injection, schedule: Q01DX011 (sc), vehicle: steriod suspending solution, higher = larger tumour) is 45 % of control; the T/C (endpoint: mean tumor weight, dose: 9.0 mg/kg/injection, schedule: Q01DX011 (sc), vehicle: steriod suspending solution, higher = larger tumour) was 52 % of control. The T/C reads like this: (endpoint: mean tumor weight, dose: 11.8 mg/kg/injection, schedule: Q01DX011 (sc), vehicle: steriod suspending solution, higher = larger tumour) 31 % of control; (endpoint: mean tumor weight, dose: 17.7 mg/kg/injection, schedule: Q01DX011 (ip), vehicle: carboxymethylcellulose (CMC), higher = larger tumour) 44 % of control; (endpoint: mean tumor weight, dose: 17.7 mg/kg/injection, schedule: Q01DX011 (sc), vehicle: steriod suspending solution, higher = larger tumour) 28 % of control and 38 % of control; (endpoint: mean tumor weight, dose: 18.0 mg/kg/injection, schedule: Q01DX011 (sc), vehicle: steriod suspending solution, higher = larger tumour) 42 % of control; (endpoint: mean tumor weight, dose: 26.6 mg/kg/injection, schedule: Q01DX011 (ip), vehicle: carboxymethylcellulose (CMC), higher = larger tumour) 48 % of control; (endpoint: mean tumor weight, dose: 26.6 mg/kg/injection, schedule: Q01DX011 (sc), vehicle: steriod suspending solution, higher = larger tumour) 37 % of control. Besides, the T/C reads like this: (endpoint: mean tumor weight, dose: 27.0 mg/kg/injection, schedule: Q01DX011 (sc), vehicle: steriod suspending solution, higher = larger tumour) 37 % of control; (endpoint: mean tumor weight, dose: 40.0 mg/kg/injection, schedule: Q01DX011 (ip), vehicle: carboxymethylcellulose (CMC), higher = larger tumour) 13 % of control; (endpoint: mean tumor weight, dose: 40.0 mg/kg/injection, schedule: Q01DX011 (sc), vehicle: steriod suspending solution, higher = larger tumour) 32 % of control; (endpoint: mean tumor weight, dose: 50.0 mg/kg/injection, schedule: Q01DX011 (ip), vehicle: carboxymethylcellulose (CMC), higher = larger tumour) 59 % of control; (endpoint: mean tumor weight, dose: 60.0 mg/kg/injection, schedule: Q01DX011 (ip), vehicle: carboxymethylcellulose (CMC), higher = larger tumour) 6 % of control; (endpoint: mean tumor weight, dose: 60.0 mg/kg/injection, schedule: Q01DX011 (sc), vehicle: steriod suspending solution, higher = larger tumour) 34 % of control.

Values taken from PubChem BioAssay AID270 (DTP/NCI, 2004).
